Measured values from patent US11925629B2, “Heterocyclic inhibitors of ERK1 and ERK2 and their use in the treatment of cancer” (Asana Biosciences, LLC, priority 2015, dated 2024).
Where a name gives a salt, the structure may show the parent alone.

What was measured:
Format in all cases: cell-based, human
[1] = system: phosphorylation of RSK1(S380) (the downstream target of ERK1/2); assay: Phospho-RSK1(S380) ELISA assay in HT-29 cells; conditions: Homo sapiens, HT-29, HT29 cells, phospho-RSK1(S380); read-out: Mechanistic Cell Assay RSK1 Phos HT29 IC50
Experimental: Phospho-RSK1(S380) ELISA Assay
HT-29 cells (colorectal carcinoma, B-RafV600E); obtained from ATCC, USA) were seeded (60,000 cells/well) in a 96-well plate and incubated at 37° C./5% CO2 overnight and then treated with desired compound dilutions for 2 h. Medium was removed and cells were rinsed once with ice-cold 1×PBS, then 0.070 mL ice-cold 1× cell lysis buffer containing 1 mM PMSF was added to each well and the plate was incubated on a shaker for 2 h and 30 min at 4° C. The plate was then centrifuged for 20 min (×4000 rpm) at 4° C. and the supernatant was transferred to a new plate. Cell lysates were diluted with sample diluent at a ratio of 1:1. The ELISA was then carried out following the manufacturer's protocol (PathScan® phospho-RSK1(Ser380) Sandwich ELISA Kit, Cell Signaling Technologies). The plate was read at 450 nm within 30 min after adding STOP solution. The IC50 values were subsequently determined using a sigmoidal dose-response curve (variable slope) in GraphPad Prism® 5 software.

[2] = system: HT-29 (colorectal carcinoma, B-RafV600E) cells; assay: Cell proliferation (Alamar Blue) assay, HT-29; conditions: Homo sapiens, HT-29, HT29 cells
Experimental: (§1) Cell Proliferation (Alamar Blue) Assay
(§2) HT-29 (colorectal carcinoma, B-RafV600E), HCT116 (colorectal carcinoma, K Ras G13D), A375 (melanoma, B-RafV600E) and SK-Mel2 (melanoma, NRAS Q61R) cells (obtained from ATCC, USA) were seeded (5000 cells/well) in 96-well tissue culture plate and incubated at 37° C./5% CO2 for 16-24 hours. The cells were then treated with compounds, at concentrations typically from 0.0005 to 10 uM prepared in 3-fold serial dilutions. The plates were then incubated for 72 h at 37° C./5% CO2 in a moist environment. Then Alamar Blue™ reagent (final concentration 1×) was added to each well and incubated for 1-3 h at 37° C./5% CO2. The plates were read on fluorescence reader at 540 nm excitation and 590 nm emission wavelengths. The IC50 values were subsequently determined using a sigmoidal dose-response curve (variable slope) using GraphPad Prism® 5 software.

[3] = system: HCT116 (colorectal carcinoma, K Ras G13D) cells; assay: Cell proliferation (Alamar Blue) assay, HCT116; conditions: Homo sapiens, HCT-116, HCT116 cells
Experimental: as §1, §2

| Compound | IC50 [1] | IC50 [2] | IC50 [3] |
| --- | --- | --- | --- |
| Cc1cnc(NC2CCOCC2)nc1-n1cnc(C(=O)N[C@H](CO)c2cc(F)cc(Cl)c2)c1 [Example 295, (S)-N-(1-(3-chloro-5-fluorophenyl)-2-hydroxyethyl)-1-(5-methyl-2-((tetrahydro-2H-pyran-4-yl)amino)pyrimidin-4-yl)-1H-imidazole-4-carboxamide] | ≤ 100 nM | – | – |
| Cc1cnc(NC2CCN(C)CC2)nc1-n1cnc(C(=O)N[C@H](CO)c2cccc(Cl)c2)c1 [Example 296, (S)-N-(1-(3-chlorophenyl)-2-hydroxyethyl)-1-(5-methyl-2-((1-methylpiperidin-4-yl)amino)pyrimidin-4-yl)-1H-imidazole-4-carboxamide] | 500 to 2500 nM | – | – |
| Cc1cnc(NC2CCOCC2)nc1-n1cnc(C(=O)NCc2sccc2CN)c1 [Example 294, N-((3-(aminomethyl)thiophen-2-yl)methyl)-1-(5-methyl-2-((tetrahydro-2H-pyran-4-yl)amino)pyrimidin-4-yl)-1H-imidazole-4-carboxamide] | > 2500 nM | – | – |
| Cc1cnc(NC2CCOCC2)nc1-n1cnc(C(=O)NC(CO)c2ccsc2)c1 (stereo not drawn) [Example 234, N-(2-hydroxy-1-(thiophen-3-yl)ethyl)-1-(5-methyl-2-((tetrahydro-2H-pyran-4-yl)amino)pyrimidin-4-yl)-1H-imidazole-4-carboxamide] | 500 to 2500 nM | – | – |
| Cc1cnc(Nc2ccc3c(c2)OCO3)nc1-n1cc(NC(=O)NC(CO)c2cccc(Cl)c2)cn1 (stereo not drawn) [Example 37, 1-(1-(2-(benzo[d][1,3]dioxol-5-ylamino)-5-methyl-pyrimidin-4-yl)-1H-pyrazol-4-yl)-3-(1-(3-chlorophenyl)-2-hydroxy-ethyl)urea] | – | > 2500 nM | 500 to 2500 nM |
| O=C(Nc1cnn(-c2nc(NC3CC3)ncc2F)c1)N[C@H](CO)c1cccc(Cl)c1 [Example 30, (S)-1-(1-(3-chlorophenyl)-2-hydroxy-ethyl)-3-(1-(2-(cyclo-propyl-amino)-5-fluoro-pyrimidin-4-yl)-1H-pyrazol-4-yl)urea] | – | > 2500 nM | > 2500 nM |
| O=C(N[C@H](CO)c1cccc(Cl)c1)c1ccn(-c2nc(NC3CCOCC3)ncc2F)c1 [Example 229, (S)-N-(1-(3-chlorophenyl)-2-hydroxyethyl)-1-(5-fluoro-2-((tetrahydro-2H-pyran-4-yl)amino)pyrimidin-4-yl)-1H-pyrrole-3-carboxamide] | – | ≤ 100 nM | 500 to 2500 nM |
| Cc1cnc(Nc2cc3c(cc2Cl)OCO3)nc1-n1ccc(C(=O)NC(CO)c2cccc(Cl)c2)c1 (stereo not drawn) [Example 101, 1-(2-((6-chloro-benzo[d][1,3]dioxol-5-yl)amino)-5-methyl-pyrimidin-4-yl)-N-(1-(3-chlorophenyl)-2-hydroxy-ethyl)-1H-pyrrole-3-carboxamide] | – | 500 to 2500 nM | > 2500 nM |
| Cc1cnc(NC2(CO)CC2)nc1-n1ccc(C(=O)NC(CO)c2ccc(F)c(Cl)c2)c1 (stereo not drawn) [Example 203, N-(1-(3-chloro-4-fluorophenyl)-2-hydroxyethyl)-1-(2-((1-(hydroxymethyl)cyclopropyl)amino)-5-methylpyrimidin-4-yl)-1H-pyrrole-3-carboxamide] | – | > 2500 nM | > 2500 nM |

Next, values leading:

| IC50 [1] | IC50 [2] | IC50 [3] | Compound |
| --- | --- | --- | --- |
| 500 to 2500 nM | – | – | CC(=O)NCC(NC(=O)c1ccn(-c2cc(Nc3ccc(F)cc3)ncc2C)c1)c1ccccc1 (stereo not drawn) [Example 135, N-(2-acetamido-1-phenylethyl)-1-(2-((4-fluorophenyl)-amino)-5-methyl-pyridin-4-yl)-1H-pyrrole-3-carboxamide] |
| > 2500 nM | – | – | O=C(NC(CO)c1cccc(Cl)c1)c1ccn(-c2ccnc(NC3CCNC3)c2)c1 (stereo not drawn) [Example 145, N-(1-(3-chloro-phenyl)-2-hydroxy-ethyl)-1-(2-(pyrrolidin-3-ylamino)pyridin-4-yl)-1H-pyrrole-3-carboxamide] |
| 250 to 500 nM | – | – | Cc1cnc(Nc2ccc(F)cc2Cl)nc1-n1ccc(C(=O)N[C@H](CO)c2cccc(Cl)c2)c1 [Cmpd 29, (S)-1-(2-((2-chloro-4-fluorophenyl)-amino)-5-methyl-pyrimidin-4-yl)-N-(1-(3-chlorophenyl)-2-hydroxy-ethyl)-1H-pyrrole-3-carboxamide] |
| 100 to 250 nM | – | – | Cc1cnc(Nc2ccc(F)cc2)cc1-n1cnc(C(=O)NC(CN)c2ccccc2)c1 (stereo not drawn) [Compound #191, N-(2-amino-1-phenylethyl)-1-(2-((4-fluorophenyl)amino)-5-methylpyridin-4-yl)-1H-imidazole-4-carboxamide] |
| – | > 2500 nM | > 2500 nM | Cc1cnc(Nc2ccccc2)cc1-n1cnc(C(=O)NC(CO)c2ccccc2)c1 (stereo not drawn) [Example 89, N-(2-hydroxy-1-phenylethyl)-1-(5-methyl-2-(phenyl-amino)pyridin-4-yl)-1H-imidazole-4-carboxamide] |
| – | > 2500 nM | > 2500 nM | Cc1cnc(Nc2ccc3occc3c2)cc1-n1ccc(C(=O)NC(CO)c2ccccc2)c1 (stereo not drawn) [Example 79, 1-(2-(benzo-furan-5-ylamino)-5-methyl-pyridin-4-yl)-N-(2-hydroxy-1-phenylethyl)-1H-pyrrole-3-carboxamide] |
| – | 250 to 500 nM | 500 to 2500 nM | NCC(NC(=O)c1cn(-c2ccnc(Nc3ccc(F)cc3)c2)cn1)c1ccccc1 (stereo not drawn) [Example 221, N-(2-amino-1-phenylethyl)-1-(2-((4-fluorophenyl)amino)pyridin-4-yl)-1H-imidazole-4-carboxamide] |
| – | > 2500 nM | > 2500 nM | NCC(Cc1ccccc1)NC(=O)c1ccn(-c2ccnc(Nc3ccc(F)cc3)c2)c1 (stereo not drawn) [Example 119, N-(1-amino-3-phenyl-propan-2-yl)-1-(2-((4-fluoro-phenyl)amino)pyridin-4-yl)-1H-pyrrole-3-carboxamide] |
| – | > 2500 nM | > 2500 nM | O=C(Nc1cnn(-c2ccnc(Nc3ccccc3)c2)c1)N[C@@H](CO)c1cccc(Cl)c1 [Example 49, (R)-1-(1-(3-chloro-phenyl)-2-hydroxy-ethyl)-3-(1-(2-(phenylamino)pyridin-4-yl)-1H-pyrazol-4-yl)urea] |
| – | > 2500 nM | > 2500 nM | Cc1cnc(Nc2ccc3[nH]cc(C4=CCNCC4)c3c2)nc1-n1ccc(C(=O)NC(CO)c2cccc(Cl)c2)c1 (stereo not drawn) [Example 209, N-(1-(3-chlorophenyl)-2-hydroxyethyl)-1-(5-methyl-2-((3-(1,2,3,6-tetrahydropyridin-4-yl)-1H-indol-5-yl)amino)pyrimidin-4-yl)-1H-pyrrole-3-carboxamide hydrochloride] |
| – | > 2500 nM | > 2500 nM | Cc1cnc(Nc2ccc(F)cc2Cl)cc1-n1ccc(C(=O)NC(CO)c2ccccc2)c1 (stereo not drawn) [Example 78, 1-(2-((2-chloro-4-fluorophenyl)amino)-5-methyl-pyridin-4-yl)-N-(2-hydroxy-1-phenylethyl)-1H-pyrrole-3-carboxamide] |
| – | > 2500 nM | > 2500 nM | Cc1cnc(NC2CCOCC2)nc1-n1ccc(C(=O)NC(CO)c2ccccc2)c1 (stereo not drawn) [Example 120, N-(2-hydroxy-1-phenylethyl)-1-(5-methyl-2-((tetrahydro-2H-pyran-4-yl)amino)pyrimidin-4-yl)-1H-pyrrole-3-carboxamide] |
| – | > 2500 nM | > 2500 nM | Cc1cnc(Nc2ccc3c(c2)OCO3)nc1-n1ccc(C(=O)NC(CO)c2cccnc2)c1 (stereo not drawn) [Example 103, 1-(2-(benzo[d][1,3]dioxol-5-ylamino)-5-methyl-pyrimidin-4-yl)-N-(2-hydroxy-1-(pyridin-3-yl)ethyl)-1H-pyrrole-3-carboxamide] |
